Measurements as given in ChEMBL document CHEMBL6074685, “Design, synthesis and biological evaluation of novel diaryl-substituted fused nitrogen heterocycles as tubulin polymerization inhibitors to overcome multidrug resistance in vitro and in vivo” (Eur J Med Chem, 2025).
Activity calls are given as the source filed them. The rule behind the calls is not given here.

Experiments:
[1] = Resistance index, ratio of IC50 for human A549/T cells to IC50 for human A549 cells; format: functional
[2] = Cytotoxicity against human MCF-10A cells assessed as inhibition of cell growth at 10 nM incubated for 48 hrs by MTT assay relative to control; format: toxicity, cell-based
[3] = Cytotoxicity against human MCF-10A cells assessed as inhibition of cell growth at 100 nM incubated for 48 hrs by MTT assay relative to control; format: toxicity, cell-based
NCI-H1299 = experiment: Antiproliferative activity against human NCI-H1299 cells assessed as cell growth inhibition incubated for 48 hrs by MTT assay; format: functional, cell-based; conditions: NCI-H1299, 48 h
Tubulin (Homo sapiens) [4] = target: T1, Tubulin (Homo sapiens) (UniProt P68371+Q9H4B7+P0DPH7+P68366+Q13509+Q71U36+P04350+Q3ZCM7+P07437+P68363+Q9BQE3+Q6PEY2+Q13885+Q9BVA1+Q9BUF5); experiment: Disruption of microtubule network in human A549/T cell at 100 to 200 nM incubated for 24 hrs by immunofluorescence staining based confocal microscopy analysis; conditions: dose 100-200 nM
Tubulin (Homo sapiens) [5] = target: T1, Tubulin (Homo sapiens); experiment: Disruption of microtubule network in human A549/T cell assessed as change in microtubule morphology at 100 to 200 nM incubated for 24 hrs by immunofluorescence staining based confocal microscopy analysis; conditions: dose 100-200 nM
A549/TR [6] = experiment: Inhibition of colony formation in human A549/T cell incubated for 48 hrs by crystal violet staining based analysis; format: functional; conditions: dose 0.1-0.5 µM
A549 [7] = experiment: Effect on p-gp expression in human A549 cells by immunoblotting analysis; format: functional, cell-based
A549/TR [8] = experiment: Effect on p-gp expression in human A549/T cell by immunoblotting analysis; format: functional, cell-based
A549/TR [9] = experiment: Downregulation of P-gp level in human A549/T cell measured after 48 hrs by immunoblotting analysis; format: functional, cell-based; conditions: dose 62.5-500 nM
A549 [10] = experiment: Induction of apoptosis in human A549 cells at 25 nM incubated for 48 hrs by V-FITC/PI staining based flow cytometry analysis relative to control; format: functional
A549/TR [11] = experiment: Induction of apoptosis in human A549/T cell at 125 nM incubated for 48 hrs by V-FITC/PI staining based flow cytometry analysis relative to control; format: functional
A549/TR [12] = experiment: Induction of apoptosis in human A549/T cell at 250 nM incubated for 48 hrs by V-FITC/PI staining based flow cytometry analysis relative to control; format: functional
[13] = Metabolic stability in mouse liver microsome assessed as half life measured upto 50 mins by LC-MS/MS analysis; format: ADME; conditions: liver microsomes
[14] = Metabolic stability in mouse liver microsome assessed as intrinsic clearance measured upto 50 mins by LC-MS/MS analysis; format: ADME; conditions: liver microsomes, read-out: CLH
A549/TR [15] = experiment: Antitumor activity against human A549/T cell xenografted in BALB/c mouse assessed as reduction in tumor growth at 15 mg/kg, ip administered every 2 days; format: functional, organism-based; conditions: time 2.0 day
[16] = Toxicity in BALB/c mouse implanted with human A549/T cell assessed as liver damage at 15 to 30 mg/kg, ip administered every 2 days by H and E staining based analysis; format: organism-based; conditions: in vivo, 48 h, dose 15-30 mg/kg, time 2 day
[17] = Toxicity in BALB/c mouse implanted with human A549/T cell assessed as spleen damage at 15 to 30 mg/kg, ip administered every 2 days by H and E staining based analysis; format: organism-based; conditions: in vivo, 48 h, dose 15-30 mg/kg, time 2 day
[18] = Toxicity in BALB/c mouse implanted with human A549/T cell assessed as lung damage at 15 to 30 mg/kg, ip administered every 2 days by H and E staining based analysis; format: organism-based; conditions: in vivo, 48 h, dose 15-30 mg/kg, time 2 day
[19] = Toxicity in BALB/c mouse implanted with human A549/T cell assessed as WBC count at 15 mg/kg, ip administered every 2 days and measured after 2 weeks (reference value: 1.3 10^9/L); format: organism-based; conditions: in vivo, 336 h
[20] = Toxicity in BALB/c mouse implanted with human A549/T cell assessed as WBC count at 30 mg/kg, ip administered every 2 days and measured after 2 weeks (reference value: 1.3 10^9/L); format: organism-based; conditions: in vivo, 336 h
[21] = Toxicity in BALB/c mouse implanted with human A549/T cell assessed as RBC count at 15 mg/kg, ip administered every 2 days and measured after 2 weeks (reference value: 7.92 10^12/L); format: organism-based; conditions: in vivo, 336 h
[22] = Toxicity in BALB/c mouse implanted with human A549/T cell assessed as red blood cell distribution width-cell volume at 15 mg/kg, ip administered every 2 days and measured after 2 weeks (reference value: 25fL); format: organism-based; conditions: in vivo, 336 h
[23] = Toxicity in BALB/c mouse implanted with human A549/T cell assessed as red blood cell distribution width-cell size at 15 mg/kg, ip administered every 2 days and measured after 2 weeks (reference value: 12.1 fL); format: organism-based; conditions: in vivo, 336 h
[24] = Toxicity in BALB/c mouse implanted with human A549/T cell assessed as mean platelet volume at 15 mg/kg, ip administered every 2 days and measured after 2 weeks (reference value: 10.1 fL); format: organism-based; conditions: in vivo, 336 h
[25] = Toxicity in BALB/c mouse implanted with human A549/T cell assessed as platelet distribution width at 15 mg/kg, ip administered every 2 days and measured after 2 weeks (reference value: 15.3 fL); format: organism-based; conditions: in vivo, 336 h
[26] = Toxicity in BALB/c mouse implanted with human A549/T cell assessed as MCHC level at 30 mg/kg, ip administered every 2 days and measured after 2 weeks (reference value: 570 g/L); format: organism-based; conditions: in vivo, 336 h
[27] = Toxicity in BALB/c mouse implanted with human A549/T cell assessed as lymphocyte count at 15 mg/kg, ip administered every 2 days and measured after 2 weeks (reference value: […]); format: organism-based; conditions: in vivo, 336 h
[28] = Toxicity in BALB/c mouse implanted with human A549/T cell assessed as lymphocyte count at 30 mg/kg, ip administered every 2 days and measured after 2 weeks (reference value: […]); format: organism-based; conditions: in vivo, 336 h
[29] = Toxicity in BALB/c mouse implanted with human A549/T cell assessed as lymphocyte count at 15 mg/kg, ip administered every 2 days and measured after 2 weeks (reference value: 56%); format: organism-based; conditions: in vivo, 336 h
[30] = Toxicity in BALB/c mouse implanted with human A549/T cell assessed as lymphocyte count at 30 mg/kg, ip administered every 2 days and measured after 2 weeks (reference value: 56%); format: organism-based; conditions: in vivo, 336 h

IC50 (NCI-H1299): 0.063 µM
Activity (Tubulin (Homo sapiens) [4]): Active
Activity (Tubulin (Homo sapiens) [5]): Active
half-life [13]: 1.05 h
CLint scaled [14]: 5.22 L/h/kg
Structure (SMILES): COc1ccc(-c2cc(-c3ccc(OC)c(OC)c3OC)c3nc[nH]c3c2)cc1N
Ratio IC50 [1]: 2.47
inhibition at 48 h, 0.01 µM [2]: 20%
inhibition at 48 h, 0.1 µM [3]: 47%
inhibition (A549/TR [6]): Dose-dependent-effect
Activity (A549 [7]): inactive
Activity (A549/TR [8]): Active
Activity (A549/TR [9]): Dose-dependent-effect
Activity (A549 [10]): 15.47%
Activity (A549/TR [11]): 54.01%
Activity (A549/TR [12]): 68.13%
Activity (A549/TR [15]): Active
Activity [16]: Non-toxic
Activity [17]: Non-toxic
Activity [18]: Non-toxic
Activity [19]: 2.8 10^9/L
Activity [20]: 2.4 10^9/L
Activity [21]: 7.43 10^12/L
Activity [22]: 24 fL
Activity [23]: 12.1 fL
Activity [24]: 10.5 fL
Activity [25]: 17.9 fL
Activity [26]: 624 g/L
Activity [27]: 1.42 10^9/L
Activity [28]: 1.32 10^9/L
Activity [29]: 50.7%
Activity [30]: 55.2%
